Tests used:
Estrogen receptor = Estrogen receptor (Homo sapiens, UniProt Q92731+P03372)
Description: Binding affinity for human estrogen receptor

Glucocorticoid receptor = target: T1, Glucocorticoid receptor (Homo sapiens, UniProt P04150)
T1 sequence (P04150 whole entry): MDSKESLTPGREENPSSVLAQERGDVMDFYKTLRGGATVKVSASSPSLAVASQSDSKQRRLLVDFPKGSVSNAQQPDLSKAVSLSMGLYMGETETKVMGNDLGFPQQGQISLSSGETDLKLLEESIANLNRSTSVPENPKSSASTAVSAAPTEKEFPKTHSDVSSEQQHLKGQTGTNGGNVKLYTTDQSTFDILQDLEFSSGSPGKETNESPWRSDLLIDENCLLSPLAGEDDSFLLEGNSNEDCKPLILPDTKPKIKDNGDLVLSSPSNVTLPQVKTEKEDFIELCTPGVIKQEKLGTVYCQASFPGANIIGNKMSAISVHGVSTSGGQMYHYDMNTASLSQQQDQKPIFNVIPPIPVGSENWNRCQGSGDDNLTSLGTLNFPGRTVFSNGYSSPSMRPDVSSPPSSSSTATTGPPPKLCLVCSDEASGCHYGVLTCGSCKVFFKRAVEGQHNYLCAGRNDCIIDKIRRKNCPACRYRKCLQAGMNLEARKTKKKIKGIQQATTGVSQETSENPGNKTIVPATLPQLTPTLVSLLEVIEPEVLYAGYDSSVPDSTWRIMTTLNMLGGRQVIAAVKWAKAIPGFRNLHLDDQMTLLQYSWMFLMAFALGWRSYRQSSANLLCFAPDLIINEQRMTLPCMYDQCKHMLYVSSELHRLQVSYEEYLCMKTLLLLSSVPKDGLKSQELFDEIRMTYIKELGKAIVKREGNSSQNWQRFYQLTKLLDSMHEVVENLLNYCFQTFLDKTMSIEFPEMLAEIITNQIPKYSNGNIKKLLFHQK
Description: Inhibitory activity against human glucocorticoid receptor (hGR)

Androgen receptor [1] = target: T2, Androgen receptor (Homo sapiens, UniProt P10275)
T2 sequence (P10275 whole entry): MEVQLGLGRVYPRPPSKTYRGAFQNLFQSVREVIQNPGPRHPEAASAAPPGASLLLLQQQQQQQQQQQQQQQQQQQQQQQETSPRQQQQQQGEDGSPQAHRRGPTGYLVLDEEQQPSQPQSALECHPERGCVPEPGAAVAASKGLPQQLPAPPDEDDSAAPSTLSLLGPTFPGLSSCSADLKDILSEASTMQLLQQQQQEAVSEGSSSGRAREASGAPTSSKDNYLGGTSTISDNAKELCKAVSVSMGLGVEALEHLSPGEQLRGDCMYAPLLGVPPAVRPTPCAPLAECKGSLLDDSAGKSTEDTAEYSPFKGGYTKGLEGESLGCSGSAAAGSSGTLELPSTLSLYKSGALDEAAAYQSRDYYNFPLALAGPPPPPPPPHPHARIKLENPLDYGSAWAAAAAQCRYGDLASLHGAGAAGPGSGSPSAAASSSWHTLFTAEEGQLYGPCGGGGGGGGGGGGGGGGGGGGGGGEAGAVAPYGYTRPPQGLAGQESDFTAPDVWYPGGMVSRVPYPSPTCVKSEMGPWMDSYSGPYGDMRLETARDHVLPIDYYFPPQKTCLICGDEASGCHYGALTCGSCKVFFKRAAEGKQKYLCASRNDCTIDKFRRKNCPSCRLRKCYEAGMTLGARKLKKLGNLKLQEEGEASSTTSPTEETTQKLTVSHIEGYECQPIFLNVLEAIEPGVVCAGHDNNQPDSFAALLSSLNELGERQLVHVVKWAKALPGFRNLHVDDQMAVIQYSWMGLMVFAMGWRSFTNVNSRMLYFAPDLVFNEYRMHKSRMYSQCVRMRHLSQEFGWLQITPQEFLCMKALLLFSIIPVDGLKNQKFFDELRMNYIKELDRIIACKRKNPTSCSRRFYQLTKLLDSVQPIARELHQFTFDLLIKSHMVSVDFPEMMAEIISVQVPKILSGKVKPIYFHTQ
Description: Inhibitory activity against human Androgen receptor

Androgen receptor [2] = target: T2, Androgen receptor; remark: listed apart in the source
Description: Binding affinity determined against human Androgen receptor

Progesterone receptor = target: T3, Progesterone receptor (Homo sapiens, UniProt P06401)
T3 sequence (P06401 whole entry): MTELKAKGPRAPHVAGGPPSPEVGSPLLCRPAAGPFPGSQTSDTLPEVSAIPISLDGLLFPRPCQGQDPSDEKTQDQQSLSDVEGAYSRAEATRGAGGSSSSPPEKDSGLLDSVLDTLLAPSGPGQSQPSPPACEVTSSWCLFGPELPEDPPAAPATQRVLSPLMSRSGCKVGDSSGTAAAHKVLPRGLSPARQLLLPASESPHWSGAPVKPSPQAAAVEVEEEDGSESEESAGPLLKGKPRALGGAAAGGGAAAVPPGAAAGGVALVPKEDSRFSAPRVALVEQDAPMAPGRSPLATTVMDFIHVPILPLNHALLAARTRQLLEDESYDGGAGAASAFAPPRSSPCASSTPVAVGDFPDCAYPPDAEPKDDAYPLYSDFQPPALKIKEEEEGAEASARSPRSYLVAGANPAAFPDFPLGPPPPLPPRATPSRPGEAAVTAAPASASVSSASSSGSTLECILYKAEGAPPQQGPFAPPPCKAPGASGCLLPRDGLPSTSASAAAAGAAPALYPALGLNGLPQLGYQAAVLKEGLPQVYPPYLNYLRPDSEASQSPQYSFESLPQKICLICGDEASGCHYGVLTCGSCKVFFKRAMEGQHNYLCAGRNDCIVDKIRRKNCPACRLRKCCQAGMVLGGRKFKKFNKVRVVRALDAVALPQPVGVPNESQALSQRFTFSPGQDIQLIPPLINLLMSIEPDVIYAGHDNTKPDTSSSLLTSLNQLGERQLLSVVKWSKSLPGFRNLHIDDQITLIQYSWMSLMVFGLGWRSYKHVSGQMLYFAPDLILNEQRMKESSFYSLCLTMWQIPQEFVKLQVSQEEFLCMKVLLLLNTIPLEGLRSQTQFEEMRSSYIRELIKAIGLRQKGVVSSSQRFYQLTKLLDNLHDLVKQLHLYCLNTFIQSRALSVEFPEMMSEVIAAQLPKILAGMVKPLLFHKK

C=C1C=C(C)CC(C)(C)C1Cc1ccc([N+](=O)[O-])cc1 (stereo not given)
Ki (Estrogen receptor): > 10 µM | IC50 (Glucocorticoid receptor): > 10 µM | IC50 (Androgen receptor [1]): 0.25 µM | Ki (Androgen receptor [2]): 6.3 µM | Ki (Progesterone receptor): 0.0535 µM

From ChEMBL document CHEMBL1129561 (J Med Chem, 1996)
